Measured values: US20260306502A1, “MITOCHONDRIAL UNCOUPLERS FOR TREATMENT OF METABOLIC DISEASES AND CANCER” (Mito Biopharma, LLC, priority 2022, published 2026)
“Also recorded” adds a separate entry of the source.

System: carbon tetrachloride (CCl4)-induced liver fibrosis NASH murine model
Assay: CCl4-induced liver fibrosis NASH murine model
Type: in vivo, mouse
Conditions: CCl4 mice
Procedure: CCl4 is a hepatotoxin that induces acute liver injury in mice and induces oxidative damage, inflammation, and liver fibrosis in mice, independent of liver steatosis, and thus is considered as a “pure” fibrotic model.
C57Bl6 male mice at the age of 7-8 weeks were randomized into 3 groups: vehicle, CCl4 alone treatment, CCl4 plus Compound treatment, n=7. CCl4 was diluted in olive oil (1:5 v/v), and intraperitoneally injected at a dose of 750 μl/kg to the mice, twice a week for 6 weeks. Compound treatment started at the beginning of CCl4 injection. At the end of treatment, the mice were euthanized and liver tissue was collected. For histology analyses, the liver tissue was fixed and paraffin embedded; tissue sections were stained with hematoxylin and eosin (H&E), or with Picrosirius red. The fibrosis severities were scored by a board-certified pathologist based on Picrosirius red stain of the liver. For immunoblotting analyses, the liver tissue was homogenized and the proteins were separated by native page gel electrophoresis. The levels of Collagen I and GAPDH were detected by Collagen I polyclonal antibody (Abcam ab34710) and GAPDH (14C10) Rabbit mAb (Cell signaling #2118).

`COCCN(CCOC)Cc1cc(Cl)cc(C(=O)Nc2nc3ccc(C(F)(F)F)cc3s2)c1O` [Compound 25, 3-((bis(2-methoxyethyl)amino)methyl)-5-chloro-2-hydroxy-N-(6-(trifluoromethyl)benzo[d]thiazol-2-yl)benzamide] was tested, and the “effect on fibrosis formation and fibrosis scores” value (7.5 mg/kg/day, 6 weeks) was “reduced fibrosis formation and improved fibrosis scores; also recorded: reduces fibrosis in CCl4 treated animals” and the “effect on collagen levels” value (immunoblotting) was “reduces collagen levels”.
